In article PMC5462828 (Scientific Reports, 2017):
Read-outs that look alike come from different tables or passages of the source.

What was measured:
RXFP1 and Gαs = tested on: T1, RXFP1 and Gαs; test: Real-time kinetic BRET, RXFP1-Rluc8 / Gαs; format: cell-based, human; details: HEK293T co-expressing RXFP1-Rluc8, Gγ2-Venus, Gβ1, Gαs; H2 relaxin 100 nM, ML290 100 nM or 10 μM
T1 construct: forward primer encodes M-D-S-K-G-S-S, not the native RXFP1 start (N); expressed in transfected cells; host or cells: HEK293T cells stably expressing RXFP1-Rluc8, transiently co-transfected with the G protein subunits
Method: HEK293 cell were seeded in 6-well plates at a density of 600,000 cells per well and transfected with constructs encoding the tagged receptors and signalling proteins. 24 h later cells were harvested in HEPES-buffered phenol red-free medium containing 5% FBS and plated out in a white 96-well plate (Nunc) that was incubated at 37 °C under 5% CO2. BRET assays were performed 48 h after transfection as described previously, [52]. Medium was replaced with phenol-red-free-DMEM supplemented with 5% FBS plus 5 μM coelenterazine h. BRET measurements were made at 37 °C using the PHERAstar Omega plate reader with Omega software (BMG LABTECH, Germany). Filtered light emissions were simultaneously measured in each of the “donor wavelength window” (475 ± 15 nm for Rluc8 with coelenterazine h) and “acceptor wavelength window” (535 ± 15 nm for Venus). Cells were assayed before and after treatment with ligands or 5% FBS phenol-red-free-DMEM medium containing 0.01% w/v BSA (vehicle). The BRET signal was calculated as previously described.

[1] = tested on: ML290-mediated cGMP accumulation; test: Effect of signalling pathway inhibitors on ML290-mediated cGMP accumulation in human primary vascular cells; format: cell-based; details: for Emax: Homo sapiens, read-out: ML290-mediated cGMP accumulation (maximum response), ML290 alone
Method: cAMP and cGMP accumulation was determined as previously described, [16]. Briefly, HEK293 cells were plated in 96-well plates (5 × 10^4 cells/well) and human primary cells were plated into 24-well plates (1 × 10^5 cells/well) and grown overnight to achieve a confluent monolayer. Prior to stimulation, HEK cells were serum-starved in DMEM containing 0.5% FBS v/v and primary cells were serum-starved in M199 medium for 4–6 hours. […] Levels of cAMP and cGMP were detected according to the manufacturer’s instructions (Perkin-Elmer, Australia).

[2] = parameters: method as in PMID 23764525; details: cited from earlier work
RXFP2 = details: cited from earlier work
AVPR1B = tested on: AVPR1B; parameters: method as in PMID 23764525; details: cited from earlier work
[3] = parameters: method as in PMID 23764525; details: cited from earlier work; remark: listed apart in the source
RXFP1 [4] = target: T2, RXFP1 (Homo sapiens, UniProt Q9HBX9); test: p38MAPK phosphorylation (Surefire) in human primary vascular cells; format: cell-based; parameters: In human primary vascular endothelial and smooth muscle cells that endogenously express RXFP1; details: 15 min
T2 sequence (Q9HBX9 1-757): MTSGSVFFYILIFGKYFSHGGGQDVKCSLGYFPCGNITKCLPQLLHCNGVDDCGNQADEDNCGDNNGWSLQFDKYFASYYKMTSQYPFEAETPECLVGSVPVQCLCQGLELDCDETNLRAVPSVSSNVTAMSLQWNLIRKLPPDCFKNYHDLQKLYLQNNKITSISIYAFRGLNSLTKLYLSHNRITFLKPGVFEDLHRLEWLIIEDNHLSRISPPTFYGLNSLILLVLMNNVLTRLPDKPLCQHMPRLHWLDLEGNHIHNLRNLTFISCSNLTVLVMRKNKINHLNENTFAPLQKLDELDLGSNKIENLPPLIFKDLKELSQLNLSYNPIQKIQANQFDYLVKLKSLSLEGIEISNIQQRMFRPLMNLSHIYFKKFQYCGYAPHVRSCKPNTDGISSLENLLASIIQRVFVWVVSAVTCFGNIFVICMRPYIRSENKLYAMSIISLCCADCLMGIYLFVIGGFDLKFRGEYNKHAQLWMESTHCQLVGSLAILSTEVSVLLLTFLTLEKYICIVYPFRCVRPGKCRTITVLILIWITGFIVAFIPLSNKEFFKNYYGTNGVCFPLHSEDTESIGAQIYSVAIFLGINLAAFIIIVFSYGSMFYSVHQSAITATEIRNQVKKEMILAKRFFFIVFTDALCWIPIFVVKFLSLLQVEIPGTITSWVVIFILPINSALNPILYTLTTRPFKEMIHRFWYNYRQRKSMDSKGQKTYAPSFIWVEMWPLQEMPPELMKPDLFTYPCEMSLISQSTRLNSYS
Method: p-ERK1/2, p-p38MAPK and p-JNK1/2 was measured using the Surefire ERK, p38 and JNK kits (TGR BioSciences, Australia) as described previously, [16]. Briefly, HEK-RXFP1 cells were plated into 96-well plates (5 × 10^4 cells/well) and primary cells grown in 24-well plates (1 × 10^5 cells/well) overnight to achieve a confluent monolayer. Prior to stimulation, HEK293 cells were serum-starved with DMEM containing 0.5% (v/v) FBS and primary cells in M199 medium for 4–6 hours. […] Levels of p-ERK1/2, p-p38MAPK and p-JNK1/2/3 were detected as per manufacturer’s instructions (Perkin-Elmer, Australia).

RXFP1 [5] = target: T2, RXFP1; test: 125I-H2 relaxin association and dissociation kinetic studies in HEK-RXFP1 cells; format: binding; parameters: expressed in transfected cells; host or cells: HEK293T / HEK293 cells stably expressing RXFP1 (HEK-RXFP1); details: ML290 1 μM
Method: Association and dissociation kinetic studies were performed using ^125I-H2 relaxin. Briefly, HEK-RXFP1 cells were plated in 96-well plates and allowed to adhere overnight. After rinsing with PBS, the cells were incubated at the given time intervals with 100pM of ^125I-H2 relaxin to measure the association rate. The dissociation rate of ML290 was calculated using ligand competition. […] The reactions were terminated by the removal of medium and washing with ice-cold PBS. Cells were digested using 0.1 M NaOH and radioactivity counted on the γ-counter.

For `CC(C)Oc1ccccc1C(=O)Nc1ccccc1C(=O)Nc1cccc(S(=O)(=O)C(F)(F)F)c1` [ML290, 2-Isopropoxy-N-(2-(3-(trifluoromethylsulfonyl)phenylcarbamoyl)phenyl) benzamide], which “ligand-induced BRET, RXFP1 - Gαs interaction” value (RXFP1 and Gαs) is on record?
The value was “promoted interactions”.

And the “ML290-mediated cGMP accumulation, ML290 alone” value ([1]; HUASMCs, control of NF449 and mSIRK experiments)?
The value was 41.9 ± 4.8%.

And the “ML290-mediated cGMP accumulation, ML290 alone” value ([1]; HUASMCs, control of gallein and Wortmannin experiments)?
Its value is 32.1 ± 4.2%.

And the “ML290-mediated cGMP accumulation, ML290 alone” value ([1]; HUVSMCs, control of NF449 and mSIRK experiments)?
The value was 31.4 ± 4.8%.

And the “ML290-mediated cGMP accumulation, ML290 alone” value ([1]; HUVSMCs, control of gallein and Wortmannin experiments)?
Its value is 30.4 ± 3.2%.

What about the Emax ([1]; HUVEC) of the same compound?
Its Emax is 39.5 ± 4.8%.

And the Emax [1]?
Its Emax is 41 ± 4.5%.

What about the T1/2 in heart ([2]; heart) of the same compound?
Its T1/2 in heart is 7.48 h.

And the tissue distribution ([2]; heart)?
Its tissue distribution is “concentrated in the heart”.

And the plasma half-life ([2]; mice)?
The plasma half-life was 8.56 h.

And the toxicity ([2]; mice)?
The toxicity was “without obvious toxicity”.

And the T1/2 in plasma ([2]; plasma)?
Its T1/2 in plasma is 8.56 h.

And the “action at RXFP2” value (RXFP2)?
Its value is “little or no action”.

And the “action at AVPR1B” value (AVPR1B)?
The value was “little or no action”.

What about the cytotoxicity [3] of the same compound?
The cytotoxicity was “little cytotoxicity”.

And the Emax (RXFP1 [4]; read-out: p-p38MAPK efficacy (Emax), HUASMC)?
Its Emax is 4.4%.

And the Emax (RXFP1 [4]; read-out: p-p38MAPK efficacy (Emax), HUVSMC)?
Its Emax is 2.7%.

And the “effect on the association rate of 125I-H2 relaxin” value (RXFP1 [5])?
Its value is “no significant effect”.
